This note sets out measurements from US20060287378A1, “Novel pyrroles and imidazoles” (priority 2003, published 2006).

Like-named read-outs stand apart in the source and are kept apart here.

Series [1] deals with T1, HMGCoA (3-Hydroxy-3-methylglutaryl CoA) Reductase (Rattus norvegicus, UniProt P51639).
T1 construct: Male Charles River Sprague-Dawley rats were fed with 2.5% cholestyramine in rat chow diets for 5 days before sacrificing; from tissue; host or cells: liver microsomes of male Sprague-Dawley rats fed cholestyramine
T1 sequence (P51639 1-887): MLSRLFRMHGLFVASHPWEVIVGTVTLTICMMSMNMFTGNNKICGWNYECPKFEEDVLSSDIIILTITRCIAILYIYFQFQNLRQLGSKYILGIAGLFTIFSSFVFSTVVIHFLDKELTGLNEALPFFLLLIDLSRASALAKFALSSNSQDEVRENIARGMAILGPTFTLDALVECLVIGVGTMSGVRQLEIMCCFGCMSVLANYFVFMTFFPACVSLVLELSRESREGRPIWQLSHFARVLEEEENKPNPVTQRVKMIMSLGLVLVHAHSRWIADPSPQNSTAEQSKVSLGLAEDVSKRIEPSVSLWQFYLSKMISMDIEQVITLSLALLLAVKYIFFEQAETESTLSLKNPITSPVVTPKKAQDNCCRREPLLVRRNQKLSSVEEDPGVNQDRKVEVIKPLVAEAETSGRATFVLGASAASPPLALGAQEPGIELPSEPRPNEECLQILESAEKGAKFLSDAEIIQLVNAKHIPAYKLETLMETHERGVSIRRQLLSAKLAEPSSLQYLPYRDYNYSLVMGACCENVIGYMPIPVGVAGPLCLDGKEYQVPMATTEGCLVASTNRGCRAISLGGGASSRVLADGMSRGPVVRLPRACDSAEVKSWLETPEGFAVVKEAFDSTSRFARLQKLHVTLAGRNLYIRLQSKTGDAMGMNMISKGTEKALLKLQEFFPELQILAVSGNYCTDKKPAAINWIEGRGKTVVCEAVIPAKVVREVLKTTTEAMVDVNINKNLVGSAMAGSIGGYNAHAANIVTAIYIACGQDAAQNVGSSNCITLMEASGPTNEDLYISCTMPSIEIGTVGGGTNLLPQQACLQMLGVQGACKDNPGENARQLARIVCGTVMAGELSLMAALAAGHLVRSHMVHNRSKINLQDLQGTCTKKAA
Briefly: HMGCoA reductase assay with rat liver microsomes (14C-HMGCoA). It counts as biochemical. The conditions noted are these: in vitro assay, 45 min at 37° C. The procedure: Rat Liver Microsomal Isolation Procedure:
Male Charles River Sprague-Dawley rats were fed with 2.5% cholestyramine in rat chow diets for 5 days before sacrificing. Livers were minced and homogenized in a sucrose homogenizing solution in an ice bath 10 times. Homogenates were diluted into a final volume of 200 mL, and centrifuged 15 min. with a Sorvall Centrifuge at 5° C., 10,000 rpm (12,000×G). The upper fat layer was removed and the supernatant decanted into fresh tubes. This step was repeated one more time before transferring the supernatant into ultracentrifuge tubes and centrifuged at 36,000 rpm (105,000×G) for an hour at 5° C. The resulting supernatant was discarded and the pellet was added to total of 15 mL 0.2 M KH2PO4. Pellets were homogenized gently by hand about 10 times. Samples were pooled and diluted into total of 60 mL buffer. The protein concentration of the homogenate was determined by the […] using a BCA (Bicinchoninic acid), kit from Pierce Chemical Company. 1 mL aliquots of microsomes were kept frozen in liquid nitrogen.
HMGCoA (3-Hydroxy-3-methylglutaryl CoA) Reductase Assay:
[3-^14C]-HMGCoA (57.0 mCi/mmol) was purchased from Amersham Biosciences, UK. HMGCoA, mevalonolactone, P-NADPH (P-Nicotinamide Adenine Dinucleotide Phosphate, Reduced form) were purchased from Sigma Chemical Co. AG 1-8×resin was purchased from Bio-Rad Laboratory. • 1. One μL of dimethyl sulfoxide (DMSO) or 1 μL of DMSO containing a test compound at a concentration sufficient to give a final assay concentration of between 0.1 nM to 1 mM was placed into each well of a Corning 96 well plate. A Volume of 34 µL of buffer (100 mM NaH2PO4, 10 mM Imidazole and 10 mM EDTA), (Ethylenediaminetetra acetic acid) containing with 50 µg/mL rat liver microsomes was added into each well. After incubation for 30 min. on ice, 15 µL of ^14C-HMGCoA (0.024 μCi) with 15 mM NADPH, 25 mM DTT, (Dithiothreitol) was added and incubated at 37° C. for an additional 45 min.
The reaction was terminated by the addition of 10 μL of HCl followed by 5 μL of mevalonolactone. Plates were incubated at room temperature overnight to allow lactonization of mevalonate to mevalonolactone. The incubated samples were applied to columns containing 300 μL of AG1-X8 anion exchange resin in a Corning filter plate.
The eluates were collected into Corning 96 well capture plates. Scintillation cocktail (Ultima-Flo-M) was added into each well and plates counted on a Trilux Microbeta Counter. The IC50 values were calculated with GraphPad software (Prism). Procedure: • 2. Add 1 μL DMSO or compounds into the wells according to the protocol • 3. Add 35 μL incubation buffer with the rat microsomes into each well. Incubate 30 min. at 4° C. • 4. Add 15 μL ^14C-HMGCoA. Incubate 45 min. at 37° C. • 5. Add 10 μL HCl stop reagent • 6. Add 5 μL mevelonolactone. Incubate overnight at room temperature • 7. Apply the containing into the AG 1-X8 anion exchange resin in Corning filter plate • 8. Collect the eluate into Corning capture plate • 9. Add scintillation cocktail Ultima-Flo-M • 10. Count on a Trilux Microbeta Counter μ • 11. Calculate IC50 values
Background: Microsomes from liver hold many membrane-bound enzymes, among them those of drug oxidation.

Series [2] relates to Sterol Biosynthesis in Rat Hepatocytes. As to the kind of experiment: Sterol biosynthesis in rat hepatocytes (14C acetic acid into cholesterol). The class given is cell-based. The conditions noted are these: Hepatocyte. Here is the method:
Protocol for Sterol Biosynthesis in Rat Hepatocytes:
(§1) Cell culture, compounds treatment and cell labeling:
Frozen rat hepatocytes purchased from XenoTech (cat# N400572) were seeded on 6-well collagen I coated plates at a density of 10^5 cells/per well. The cells were grown in DMEM, (Dulbecco's Modified Eagle Medium) (Gibco, #11054-020) containing 10% FBS (Fetal Bovine Serum) and 10 mM HEPES, (N-2-hydroxyethyl-piperazine-N^1-2-ethane sulfonic acid) (Gibco # 15630-080) for 24 hrs. The cells were pre-incubated with compounds for 4 hrs and then labeled by incubating in medium containing 1 uCVper mL of ^14C acetic acid for an additional 4 hrs. After labeling, the cells were washed twice with 5 mM MOPS, (3-[N-morpholino] propane sulfonic acid) solution containing 150 mM NaCl and 1 mM EDTA and collected in the lysis buffer containing 10% KOH and 80% (vol.) ethanol. Cholesterol extraction and data analysis:
In order to separate labeled cholesterol from labeled non-cholesterol lipids, the cells lysates were subject to saponification at 60° C. for 2 hrs. The lysates were then combined with 0.5 volume of H2O and 2 volumes of hexane, followed by 30 minutes of vigorous shaking. After the separation of two phases, the upper-phase solution was collected and combined with 5 volumes of scintillation cocktail. The amount of ^14C cholesterol was quantified by liquid scintillation counting. The IC50 values were calculated with GraphPad software (Prism 3.03).

For series [3], the system named is Sterol Biosynthesis in L6 Rat Myoblast. Briefly: Sterol biosynthesis in L6 rat myoblast (14C acetic acid into cholesterol). The conditions noted are these: 3 hours pre-incubation, 3 hours 14C acetic acid labeling. It counts as cell-based. The procedure:
C.) Protocol for Sterol Biosynthesis in L6 Rat Myoblast:
as §1
L6 rat myoblast purchased from ATCC (CRL-1458) were grown in T-150 vented culture flasks and seeded on 12-well culture plates at a density of 60,000 cells per well. The cells were grown in DMEM, (Dulbecco's Modified Eagle Medium) (Gibco, #10567-014) containing 10% heat inactivated FBS (Fetal Bovine Serum) (Gibco # 10082-139) for 72 hours until reaching confluence. The cells were pre-incubated in media with compound and 0.2% DMSO (dimethyl sulfoxide) for 3 hours and then labeled by incubating in medium containing compound, 0.2% DMSO and 1 □]Ci/per mL of ^14C acetic acid for an additional 3 hours. After labeling, the cells were washed once with 1×PBS (Gibco #14190-144) then lysed overnight at 4° C. in buffer containing 10% KOH and 78%(vol.) ethanol. Cholesterol extraction and data analysis:
Lipid ester bonds were hydrolyzed by saponification of the lysates at 60° C. for 2 hours. Sterols (including cholesterol) were extracted from saponified lysates by combining with 3 volumes of hexane and mixing by pipette 6 times. The upper organic phase solution was collected and combined with an equal volume of 1 N KOH in 50% methanol and mixed by pipette 6 times. The upper organic phase was collected in a scintilant-coated plate (Wallac #1450-501) and hexanes removed by evaporation at room temperature for 3 hours. The amount of ^14C cholesterol was quantified by scintillation counting in a Trilux 1450 plate reader (Wallac). The IC50 values were calculated from % inhibitions relative to negative controls vs. compound concentration on Microsoft excel 2000 data analysis wizard using a sigmoid inhibition curve model with formula: y=Bmax (1−(x^n/K^n+x^n))+y2
Where K is the IC50 for the inhibition curve, X is inhibitor concentration, Y is the response being inhibited and Bmax+Y2 is the limiting response as X approaches zero.

Usually IC50 stands for the concentration needed to halve the response being measured. Turning to `O=C(O)C[C@H](O)C[C@H](O)CCn1c(-c2ccc(F)cc2)nc(C(=O)NCc2ccccc2)c1C1CC1` [Example 110, Sodium: (3R,5R)-7-[4-Benzylcarbamoyl-5-cyclopropyl-2-(4-fluoro-phenyl)-imidazol-1-yl]-3,5-dihydroxy-heptanoate], the IC50 in series [1] is 1.38 nM; in series [2] (Rattus norvegicus) it was 0.218 nM; in series [3] it was 632 nM.

Consider `COc1ccc(CNC(=O)c2nc(-c3ccc(F)cc3)n(CC[C@@H](O)C[C@@H](O)CC(=O)O)c2C2CC2)cc1` [Example 111], for which the results for the half-maximal inhibitory concentration (IC50) in series [1], in series [2] (Rattus norvegicus) and in series [3] were 1.17 nM, 0.146 nM and 6400 nM, respectively.

The term melting point denotes the temperature, or range, at which the solid turns liquid. `CC(C)c1c(NC(=O)OCc2ccccc2)nc(-c2ccc(F)cc2)n1CC[C@@H](O)C[C@@H](O)CC(=O)[O-].[Na+]` [Example 137, Sodium: (3R,5R)-7-[4-benzyloxycarbonylamino-2-(4-fluoro-phenyl)-5-isopropyl-imidazol-1-yl]-3,5-dihydroxy-heptanoate sodium salt] came in with a melting point of 86 to 90 °C.

In series [1], `COc1ccc(CNC(=O)c2nc(-c3ccc(F)cc3)n(CC[C@@H]3C[C@@H](O)CC(=O)O3)c2C2CC2)cc1` [Example 104, 5-Cyclopropyl-2-(4-fluoro-phenyl)-1-[2-((2R,4R)-4-hydroxy-6-oxo-tetrahydro-pyran-2-yl)-ethyl]-1H-imidazole-4-carboxylic acid 4-methoxybenzylamide] registered an IC50 of 75.8 nM.

`O=C1C[C@H](O)C[C@@H](CCn2c(-c3ccc(F)cc3)nc(C(=O)NCc3ccccc3)c2C2CC2)O1` [Example 103, 5-Cyclopropyl-2-(4-fluoro-phenyl)-1-[2-((2R,4R)-4-hydroxy-6-oxo-tetrahydro-pyran-2-yl)-ethyl]-1H-imidazole-4-carboxylic acid benzylamide]: the IC50 in series [1] is 50.4 nM; in series [2] (cell assay, rat hepatocytes, 4 hrs pre-incubation, 4 hrs 14C acetic acid labeling, read-out: IC50), 0.088 nM.

Regarding `CC(C)c1c(S(=O)(=O)NCc2ccc(C(=O)[O-])cc2)c(-c2ccc(F)cc2)c(-c2ccc(F)cc2)n1CC[C@@H](O)C[C@@H](O)CC(=O)[O-].[Na+].[Na+]` [Example 43P], the melting point was > 250 °C.

For `CN(Cc1ccccc1)C(=O)c1nc(-c2ccc(F)cc2)n(CC[C@@H](O)C[C@@H](O)CC(=O)O)c1C1CC1` [Example 112], the IC50 amounted to 8.39 nM in series [1], 1.15 nM in series [2] (Rattus norvegicus) and 73500 nM in series [3].

`CC(C)c1c(C(=O)N2CCN(c3ccc(F)cc3F)CC2)nc(-c2ccc(F)cc2)n1CC[C@@H](O)C[C@@H](O)CC(=O)O` [Example 69]: the IC50 in series [1] is 2.2 nM; in series [2] (Rattus norvegicus) it was 0.18 nM; in series [3], 159 nM.

With `Cc1cc(CNC(=O)c2nc(-c3ccc(F)cc3)n(CC[C@@H](O)C[C@@H](O)CC(=O)O)c2C(C)C)no1` [Example 62], the IC50 in series [1] was determined as 7.2 nM; in series [2] (Rattus norvegicus) it was 0.58 nM; in series [3] it was 703 nM.

On to `CC(C)c1c(S(=O)(=O)Nc2ccccc2)c(-c2ccc(F)cc2)c(-c2ccc(F)cc2)n1CC[C@@H](O)C[C@@H](O)CC(=O)[O-].[Na+]` [Example 1P, (3R,5R)-7-[2,3-bis-(4-fluoro-phenyl)-5-isopropyl-4-phenylsulfamoyl-pyrrol-1-yl]-3,5-dihydroxy-heptanoic acid monosodium salt], for which the melting point is 130 to 134 °C (dec.).

Turning to `CC(C)c1c(C(=O)NCc2ccccc2)nc(-c2ccc(F)cc2)n1CC[C@@H](O)C[C@@H](O)CC(=O)O` [Example 4], the IC50 stood at 7.9 nM in series [1], 0.42 nM in series [2] (Rattus norvegicus) and 3070 nM in series [3].
